The source of these data is patent US20130267494A1, “1,4-OXAZEPANE DERIVATIVES” (priority 2010, published 2013).

Type in all cases: cell-based
Assay [1] addresses T1, human dopamine transporter (Homo sapiens, UniProt Q01959).
T1 construct: expressed in transfected cells
The assay is described as follows: Inhibitory action on human dopamine transporter ([3H]-dopamine uptake in CHO cells). To be noted: compound 1 μM, relative to inhibitory activity of 100 μM Nomifensine as 100%; for inhibition at 1 µM: CHO, read-out: inhibitory rate (%). Summed up: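 CHO-K1 cells stably expressing human dopamine transporter, exposed to compound at 10 μM or 1 μM in HEPES-buffered saline with 0.5% BSA. [3H]-dopamine uptake measured over 60 min by scintillation counting. Activity expressed relative to 100 μM nomifensine as 100%.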

Assay [2] addresses T2, human norepinephrine transporter (Homo sapiens, UniProt P23975).
T2 construct: expressed in transfected cells
The experiment in a line: Inhibitory action on human norepinephrine transporter ([3H]-norepinephrine uptake in CHO cells). To be noted: relative to inhibitory activity of 10 μM DMI as 100%; for inhibition at 1 µM: CHO. Summed up: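 Stably transfected CHO-K1 cells plated overnight, then given test compound and [3H]-norepinephrine (20 nM final, from 200 nM) in HEPES-buffered saline with 0.5% BSA for 45 min. After PBS washes, retained radioactivity counted by scintillation. Inhibition at 10 μM or 1 μM compound expressed relative to 10 μM DMI as 100%.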

For assay [3], the target named is T3, human serotonin transporter (Homo sapiens, UniProt P31645).
T3 construct: expressed in transfected cells
T3 sequence (P31645 whole entry): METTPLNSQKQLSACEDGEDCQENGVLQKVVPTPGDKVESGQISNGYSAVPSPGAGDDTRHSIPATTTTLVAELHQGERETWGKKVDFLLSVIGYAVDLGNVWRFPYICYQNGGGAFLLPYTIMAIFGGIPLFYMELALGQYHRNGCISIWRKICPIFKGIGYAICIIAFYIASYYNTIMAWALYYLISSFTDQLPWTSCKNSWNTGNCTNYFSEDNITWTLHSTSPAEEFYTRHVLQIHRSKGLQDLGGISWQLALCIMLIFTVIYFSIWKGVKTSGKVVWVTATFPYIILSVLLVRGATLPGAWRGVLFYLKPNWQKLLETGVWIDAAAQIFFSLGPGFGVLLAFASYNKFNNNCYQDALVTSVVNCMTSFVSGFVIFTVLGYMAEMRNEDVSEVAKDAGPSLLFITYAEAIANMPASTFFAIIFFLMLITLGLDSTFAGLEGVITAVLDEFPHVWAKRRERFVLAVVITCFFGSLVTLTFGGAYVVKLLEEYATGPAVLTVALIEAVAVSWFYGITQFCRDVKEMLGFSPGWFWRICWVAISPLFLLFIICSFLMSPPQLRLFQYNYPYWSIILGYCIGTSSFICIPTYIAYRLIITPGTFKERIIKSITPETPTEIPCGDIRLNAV
The assay is described as follows: Inhibitory action on human serotonin transporter ([3H]-5-hydroxytryptamine uptake in CHO cells). The following applies: compound 1 μM, relative to inhibitory activity of 10 μM Paroxetine as 100%; for inhibition at 1 µM: CHO, read-out: inhibitory rate (%). A digest of the protocol: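 CHO-K1 cells stably expressing human SERT, plated overnight, took up [3H]-5-HT (diluted to 200 nM before a 1:10 addition) for 20 min in HEPES-buffered saline with glucose and 0.5% BSA; radioactivity counted by scintillation. Compounds at 10 μM or 1 μM, activity expressed relative to 10 μM paroxetine set as 100%.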

Where [4] appears, read: compound 1 μM, read-out: inhibitory rate (%).
Where [5] appears, read: read-out: inhibitory rate (%), compound 1 μM.

Structures can show the parent of a compound that is named as a salt. Where two headings read alike, the source gives them in different places.

T2 sequence (P23975 whole entry): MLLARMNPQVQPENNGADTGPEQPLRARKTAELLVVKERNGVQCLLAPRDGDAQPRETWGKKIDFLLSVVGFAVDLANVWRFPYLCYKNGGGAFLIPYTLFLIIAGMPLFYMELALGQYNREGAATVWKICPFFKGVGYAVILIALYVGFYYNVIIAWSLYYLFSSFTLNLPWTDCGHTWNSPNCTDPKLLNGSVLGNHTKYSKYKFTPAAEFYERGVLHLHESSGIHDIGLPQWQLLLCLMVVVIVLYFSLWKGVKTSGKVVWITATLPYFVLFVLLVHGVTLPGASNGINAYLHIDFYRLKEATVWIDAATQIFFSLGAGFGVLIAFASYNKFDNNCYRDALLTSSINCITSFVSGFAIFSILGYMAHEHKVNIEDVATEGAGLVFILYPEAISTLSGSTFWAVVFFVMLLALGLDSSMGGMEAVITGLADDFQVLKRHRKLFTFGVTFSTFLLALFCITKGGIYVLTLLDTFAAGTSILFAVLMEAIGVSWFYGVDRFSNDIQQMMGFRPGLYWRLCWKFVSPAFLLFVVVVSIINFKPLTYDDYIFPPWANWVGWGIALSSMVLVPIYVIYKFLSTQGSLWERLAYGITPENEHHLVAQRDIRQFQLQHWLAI
T1 sequence (Q01959 whole entry): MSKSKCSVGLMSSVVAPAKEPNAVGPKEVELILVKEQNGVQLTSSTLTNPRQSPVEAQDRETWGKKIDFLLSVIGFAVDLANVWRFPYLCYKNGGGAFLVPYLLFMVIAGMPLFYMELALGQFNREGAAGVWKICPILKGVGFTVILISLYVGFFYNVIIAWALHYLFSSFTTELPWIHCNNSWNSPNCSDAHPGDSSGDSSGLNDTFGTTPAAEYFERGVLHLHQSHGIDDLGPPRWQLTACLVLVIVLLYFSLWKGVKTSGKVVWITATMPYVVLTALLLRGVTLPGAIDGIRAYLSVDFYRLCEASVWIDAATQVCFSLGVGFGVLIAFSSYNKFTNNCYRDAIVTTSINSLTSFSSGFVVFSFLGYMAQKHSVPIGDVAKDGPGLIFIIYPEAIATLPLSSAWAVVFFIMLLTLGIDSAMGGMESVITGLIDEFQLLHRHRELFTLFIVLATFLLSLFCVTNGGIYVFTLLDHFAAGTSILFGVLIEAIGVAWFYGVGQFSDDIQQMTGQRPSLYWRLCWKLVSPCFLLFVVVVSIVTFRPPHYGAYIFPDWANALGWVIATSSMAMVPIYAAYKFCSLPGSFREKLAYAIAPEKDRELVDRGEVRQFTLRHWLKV

As for `O=c1ccccn1C[C@@H]1CNCCO[C@H]1c1ccc(Cl)c(F)c1` [Example 42, 1-{[(6S,7R)-7-(4-chloro-3-fluorophenyl)-1,4-oxazepan-6-yl]methyl}pyridin-2(1H)-one monohydrochloride], the inhibition at 1 µM came to 47% in assay [1], 102% in assay [2] (setting [4]) and 87% in assay [3].
As for `OC[C@@H](O)[C@@H]1OCCNC[C@H]1c1ccc(Cl)c(Cl)c1` [Example 46, (1R)-1-[(6R,7R)-6-(3,4-dichlorophenyl)-1,4-oxazepan-7-yl]ethane-1,2-diol monohydrochloride], the inhibition at 1 µM in assay [1] turned out to be 27%; in assay [2] (setting [4]) it was 104%; in assay [3] it was 70%.
Turning to `OC[C@@]1(c2ccc(Cl)c(Cl)c2)CCNCCO1` [Example 47, [(7S)-7-(3,4-dichlorophenyl)-1,4-oxazepan-7-yl]methanol monohydrochloride], the inhibition at 1 µM came out at 9% in assay [1], 99% in assay [2] (setting [5]) and 82% in assay [3].
Regarding `OCC1CNCCOC1c1ccc(Cl)c(Cl)c1` (stereo not drawn) [Example 48, [(6R*,7R*)-7-(3,4-dichlorophenyl)-1,4-oxazepan-6-yl]methanol monohydrochloride (retention time short)], the inhibition at 1 µM in assay [1] came to 22%; in assay [2] (setting [5]), 99%; in assay [3] it was 98%.
Regarding `OCC1CNCCOC1c1ccc(Cl)c(Cl)c1` (stereo not drawn) [Example 49, [(6R*,7R*)-7-(3,4-dichlorophenyl)-1,4-oxazepan-6-yl]methanol monohydrochloride (retention time long)], the “inhibitory rate (%)” value in assay [1] is 41%; in assay [2] (compound 1 μM), 98%; in assay [3] it was 87%.
As to `OC[C@@H]1CNCCO[C@H]1c1ccc(Cl)c(Cl)c1` [Example 72, [(6S,7R)-7-(3,4-dichlorophenyl)-1,4-oxazepan-6-yl]methanol monohydrochloride], the inhibition at 1 µM came to 41% in assay [1], 95% in assay [2] (setting [5]) and 90% in assay [3].
The like results for `OC[C@H]1CNCCO[C@@H]1c1ccc(Cl)c(Cl)c1` [Example 73, [(6R,7S)-7-(3,4-dichlorophenyl)-1,4-oxazepan-6-yl]methanol monohydrochloride] were, in that order, 64%, 98% and 97%.
As for `O=c1[nH]c(-c2ccc(OC[C@@H]3CNCCO[C@H]3c3ccc(Cl)c(Cl)c3)nc2)no1` [Example 87, 3-(6-{[(6S,7R)-7-(3,4-dichlorophenyl)-1,4-oxazepan-6-yl]methoxy}pyridin-3-yl)-1,2,4-oxadiazol-5(4H)-one monohydrochloride], the inhibition at 1 µM is 20% in assay [1], 108% in assay [2] (setting [4]) and 96% in assay [3].
For `CS(=O)(=O)C[C@@H]1CNCCO[C@H]1c1ccc(Cl)c(Cl)c1` [Example 92, (6R,7R)-7-(3,4-dichlorophenyl)-6-[(methylsulfonyl)methyl]-1,4-oxazepane monohydrochloride], the inhibition at 1 µM came to 86% in assay [1], 96% in assay [2] (setting [4]) and 97% in assay [3].
Taken in the same sequence, the figures for `CS(=O)(=O)C[C@H]1CNCCO[C@@H]1c1ccc(Cl)c(Cl)c1` [Example 93, (6S,7S)-7-(3,4-dichlorophenyl)-6-[(methylsulfonyl)methyl]-1,4-oxazepane monohydrochloride] were 96%, 96% and 97%.
Taken in the same sequence, the figures for `CC(=O)N(C)C[C@@H]1CNCCO[C@H]1c1ccc(Cl)c(Cl)c1` [Example 99, N-{[(6S,7R)-7-(3,4-dichlorophenyl)-1,4-oxazepan-6-yl]methyl}-N-methylacetamide monohydrochloride] were 94%, 98% and 99%.
For `CS(=O)(=O)CC(=O)NC[C@@H]1CNCCO[C@H]1c1ccc(Cl)c(Cl)c1` [Example 114, N-{[(6S,7R)-7-(3,4-dichlorophenyl)-1,4-oxazepan-6-yl]methyl}-2-(methylsulfonyl)acetamide monohydrochloride], the inhibition at 1 µM in assay [1] was 59%; in assay [2] (setting [4]), 99%; in assay [3], 94%.
Taken in the same sequence, the figures for `CS(=O)(=O)CC(=O)NC[C@H]1CNCCO[C@@H]1c1ccc(Cl)c(Cl)c1` [Example 115, N-{[(6R,7S)-7-(3,4-dichlorophenyl)-1,4-oxazepan-6-yl]methyl}-2-(methylsulfonyl)acetamide monohydrochloride] were 66%, 98% and 99%.
Consider `O=C(NC[C@@H]1CNCCO[C@H]1c1ccc(Cl)c(Cl)c1)c1ccccc1` [Example 126, N-{[(6S,7R)-7-(3,4-dichlorophenyl)-1,4-oxazepan-6-yl]methyl}benzamide monohydrochloride], for which the inhibition at 1 µM is 27% in assay [1], 103% in assay [2] (setting [4]) and 97% in assay [3].
The like results for `O=C(NC[C@@H]1CNCCO[C@H]1c1ccc(Cl)c(Cl)c1)c1cccc(-c2noc(=O)[nH]2)c1` [Example 142, N-{[(6S,7R)-7-(3,4-dichlorophenyl)-1,4-oxazepan-6-yl]methyl}-3-(5-oxo-4,5-dihydro-1,2,4-oxadiazol-3-yl)benzamide monohydrochloride] were, in that order, 4%, 100% and 95%.
Taken in the same sequence, the figures for `O=C(NC[C@@H]1CNCCO[C@H]1c1ccc(Cl)c(Cl)c1)c1cc(-c2noc(=O)[nH]2)ccn1` [Example 146, N-{[(6S,7R)-7-(3,4-dichlorophenyl)-1,4-oxazepan-6-yl]methyl}-4-(5-oxo-4,5-dihydro-1,2,4-oxadiazol-3-yl)pyridine-2-carboxamide monohydrochloride] were 47%, 101% and 100%.
Regarding `NC(=O)NC[C@@H]1CNCCO[C@H]1c1ccc(Cl)c(Cl)c1` [Example 152, 1-{[(6S,7R)-7-(3,4-dichlorophenyl)-1,4-oxazepan-6-yl]methyl}urea monofumarate], the inhibition at 1 µM is 59% in assay [1], 95% in assay [2] (setting [5]) and 89% in assay [3].
As for `NC(=O)NC[C@H]1CNCCO[C@@H]1c1ccc(Cl)c(Cl)c1` [Example 153, 1-{[(6R,7S)-7-(3,4-dichlorophenyl)-1,4-oxazepan-6-yl]methyl}urea monofumarate], the inhibition at 1 µM in assay [1] was 49%; in assay [2] (setting [5]), 95%; in assay [3], 93%.
Regarding `CNC(=O)N(CCO)C[C@@H]1CNCCO[C@H]1c1ccc(Cl)c(Cl)c1` [Example 160, 1-{[(6S,7R)-7-(3,4-dichlorophenyl)-1,4-oxazepan-6-yl]methyl}-1-(2-hydroxyethyl)-3-methylurea monohydrochloride], the inhibition at 1 µM came to 99% in assay [1], 101% in assay [2] (setting [4]) and 99% in assay [3].
Regarding `O=c1nc(-c2ccccc2S(=O)(=O)C[C@@H]2CNCCO[C@H]2c2ccc(Cl)c(Cl)c2)[nH]o1` [Example 167, 3-[2-({[(6R,7R)-7-(3,4-dichlorophenyl)-1,4-oxazepan-6-yl]methyl}sulfonyl)phenyl]-1,2,4-oxadiazol-5(2H)-one monohydrochloride], the inhibition at 1 µM is 88% in assay [1], 103% in assay [2] (setting [4]) and 93% in assay [3].
Taken in the same sequence, the figures for `O=C(O)c1cccnc1NC[C@@H]1CNCCO[C@H]1c1ccc(Cl)c(Cl)c1` [Example 176, 2-({[(6S,7R)-7-(3,4-dichlorophenyl)-1,4-oxazepan-6-yl]methyl}amino)pyridine-3-carboxylic acid monohydrochloride] were 20%, 101% and 80%.
On to `O=C(O)c1ccnn1C[C@@H]1CNCCO[C@H]1c1ccc(Cl)c(Cl)c1` [Example 181, 1-{[(6S,7R)-7-(3,4-dichlorophenyl)-1,4-oxazepan-6-yl]methyl}-1H-pyraole-5-carboxylic acid monohydrochloride], for which the inhibition at 1 µM in assay [1] amounted to 39%; in assay [2] (setting [4]), 100%; in assay [3], 87%.
The like results for `Cc1cc(C(=O)O)nn1C[C@@H]1CNCCO[C@H]1c1ccc(Cl)c(Cl)c1` [Example 187, 1-{[(6S,7R)-7-(3,4-dichlorophenyl)-1,4-oxazepan-6-yl]methyl}-5-methyl-1H-pyrazole-3-carboxylic acid monohydrochloride] were, in that order, 53%, 101% and 86%.
